Reference: publication PMC9471048, “The signaling and selectivity of α‐adrenoceptor agonists for the human α2A, α2B and α2C‐adrenoceptors and comparison with human α1 and β‐adrenoceptors” (Pharmacology Research & Perspectives, 2022)
Read-outs that look alike come from different tables or passages of the source.

Key:
[1] = test system: parent CHO cells (no transfected receptor); design: method as in PMID 34355529; details: non‐α‐mediated mechanism; cited from earlier work
[2] = target: T1, human α2A‐adrenoceptor (Homo sapiens, UniProt P08913)
T1 sequence (P08913 1-465): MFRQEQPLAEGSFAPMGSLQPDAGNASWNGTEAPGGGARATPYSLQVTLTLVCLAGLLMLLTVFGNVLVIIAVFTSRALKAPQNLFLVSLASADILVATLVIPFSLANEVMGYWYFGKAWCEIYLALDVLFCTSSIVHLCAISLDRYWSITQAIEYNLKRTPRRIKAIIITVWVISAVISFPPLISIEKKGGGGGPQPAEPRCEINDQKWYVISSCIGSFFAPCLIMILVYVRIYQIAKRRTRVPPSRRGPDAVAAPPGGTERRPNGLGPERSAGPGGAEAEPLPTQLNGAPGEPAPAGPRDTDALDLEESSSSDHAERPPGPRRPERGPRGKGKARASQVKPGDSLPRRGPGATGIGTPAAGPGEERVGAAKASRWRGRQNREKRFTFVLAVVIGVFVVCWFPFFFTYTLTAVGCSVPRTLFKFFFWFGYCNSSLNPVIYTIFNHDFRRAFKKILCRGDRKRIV

[3] = target: T2, human α2C‐adrenoceptor (Homo sapiens, UniProt P18825); test: 3H‐rauwolscine whole cell binding in CHO‐α2C cells; design: expressed in transfected cells; host or cells: CHO-K1 with CRE-SPAP reporter
T2 sequence (P18825 1-462): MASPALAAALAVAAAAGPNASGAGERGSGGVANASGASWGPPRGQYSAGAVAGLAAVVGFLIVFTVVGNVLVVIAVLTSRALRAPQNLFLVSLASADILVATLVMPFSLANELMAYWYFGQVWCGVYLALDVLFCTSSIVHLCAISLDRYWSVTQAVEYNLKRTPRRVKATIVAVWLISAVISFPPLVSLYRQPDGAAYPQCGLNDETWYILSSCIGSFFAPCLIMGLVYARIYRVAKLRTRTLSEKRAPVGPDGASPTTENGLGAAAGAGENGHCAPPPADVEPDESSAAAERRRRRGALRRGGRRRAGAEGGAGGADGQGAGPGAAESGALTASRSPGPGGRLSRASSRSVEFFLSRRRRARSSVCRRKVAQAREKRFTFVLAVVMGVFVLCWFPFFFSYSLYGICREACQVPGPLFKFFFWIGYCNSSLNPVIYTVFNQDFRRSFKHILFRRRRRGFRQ

[4] = target: T2, human α2C‐adrenoceptor; test: ERK1/2‐phosphorylation in CHO‐α2C cells; format: cell-based; design: expressed in transfected cells; host or cells: CHO-K1 with CRE-SPAP reporter; details: CHO‐α2C cells; for % 10 μM PDBu, ERK1/2‐phosphorylation: maximum response compared to 10 μM PDBu, mean ± SEM; for EC50: read-out: Log EC50, ERK1/2‐phosphorylation (converted)
[5] = target: T2, human α2C‐adrenoceptor
[6] = target: T1, human α2A‐adrenoceptor; test: ERK1/2‐phosphorylation in CHO‐α2A cells; format: cell-based; design: expressed in transfected cells; host or cells: CHO-K1 with CRE-SPAP reporter; details: CHO‐α2A; for % 10 μM PDBu, ERK1/2‐phosphorylation: maximum response compared to 10 μM PDBu; for EC50: read-out: Log EC50, ERK1/2‐phosphorylation (converted)
[7] = target: T1, human α2A‐adrenoceptor; remark: listed apart in the source
[8] = target: T1, human α2A‐adrenoceptor; test: 3H‐rauwolscine whole cell binding in CHO‐α2A cells; design: expressed in transfected cells; host or cells: CHO-K1 with CRE-SPAP reporter
[9] = target: T3, α1A‐adrenoceptor (Homo sapiens, UniProt P35348)
T3 sequence (P35348 1-466): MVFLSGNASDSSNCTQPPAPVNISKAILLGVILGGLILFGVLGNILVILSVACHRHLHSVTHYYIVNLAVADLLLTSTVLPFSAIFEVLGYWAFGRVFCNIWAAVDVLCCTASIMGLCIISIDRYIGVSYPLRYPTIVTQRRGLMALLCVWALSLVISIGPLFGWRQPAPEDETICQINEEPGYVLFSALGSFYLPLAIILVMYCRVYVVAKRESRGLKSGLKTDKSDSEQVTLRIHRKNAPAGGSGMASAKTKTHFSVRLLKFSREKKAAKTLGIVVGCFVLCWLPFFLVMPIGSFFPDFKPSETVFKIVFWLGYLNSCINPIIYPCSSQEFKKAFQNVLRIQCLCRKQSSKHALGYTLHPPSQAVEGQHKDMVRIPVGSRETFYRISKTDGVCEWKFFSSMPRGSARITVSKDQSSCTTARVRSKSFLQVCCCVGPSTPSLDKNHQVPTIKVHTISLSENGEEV

[10] = CHO‐α2C cells, 3H‐rauwolscine whole cell binding, given as negative log KD, mean only (SEM in Table 4), read-out: Log KD (converted)
[11] = CHO‐α2C cells, % inhibition from the 3 μM forskolin control, mean ± SEM
[12] = CHO‐α2C cells, CRE‐SPAP production in the absence of forskolin
[13] = Log IC50 (Gi), CRE‐SPAP (with forskolin), CHO‐α2C cells, inhibition of 3 μM forskolin‐stimulated CRE‐SPAP production, given as negative log IC50, mean ± SEM
[14] = given as negative log EC50, mean ± SEM
[15] = CHO‐α2A (cell line 1), absence of forskolin
[16] = 3H‐rauwolscine whole cell binding, ^app: apparent KD, IC50 from extrapolated curve as not all specific binding was inhibited, read-out: Log KD (apparent), CHO‐α2A (converted)
[17] = CHO‐α2A, 3H‐rauwolscine whole cell binding, given as negative log KD, read-out: Log KD (binding) (converted)
[18] = fold, from KD values, 1 = no selectivity
[19] = 3H‐rauwolscine whole cell binding, ^app: apparent KD, IC50 from extrapolated curve as not all specific binding was inhibited, read-out: Log KD (apparent), CHO‐α2C (converted)
[20] = CHO‐α2C cells, log KD from 3H‐rauwolscine binding versus CRE‐SPAP log IC50

Q: For `CN1C[C@H](C(=O)N[C@]2(C)O[C@@]3(O)[C@@H]4CCCN4C(=O)[C@H](Cc4ccccc4)N3C2=O)C[C@@H]2c3cccc4[nH]cc(c34)C[C@H]21` [Dihydroergotamine], which “ERK1/2‐phosphorylation agonist response in parent cells” value [1] is on record?
A: The value was “stimulate ERK1/2‐phosphorylation agonist responses”.

Q: With `Cc1cc(C(C)(C)C)c(O)c(C)c1CC1=NCCN1` [Oxymetazoline] as the molecule, how does the “ERK1/2‐phosphorylation agonist response in parent cells” value [1] read?
A: Its value is “stimulate ERK1/2‐phosphorylation agonist responses”.

Q: Which results are given for `Clc1ccc2nsnc2c1NC1=NCCN1` [Tizanidine]?
A: % 3 μM forskolin, CRE‐SPAP (without forskolin) [2]: 15.8 ± 4.7%; Kd ([3]; 3H‐rauwolscine whole cell binding, living cells, negative log KD, mean ± SEM, read-out: Log KD, CHO‐α2C (converted)): 1.48 µM; Kd [3, 10]: 1.48 µM; % 10 μM PDBu, ERK1/2‐phosphorylation [4]: 133.6 ± 17.9%; % inhibition, CRE‐SPAP (with forskolin) [5, 11]: 72.1 ± 4.4%; Log EC50 (Gs), CRE‐SPAP (without forskolin) [5, 12]: No response; IC50 [5, 13]: 0.302 µM; % 10 μM PDBu, ERK1/2‐phosphorylation [6]: 135.7 ± 17.3%

Q: Which “% inhibition, CRE‐SPAP (with forskolin)” value [7] does the source give for `Cc1cc(C(C)(C)C)cc(C)c1CC1=NCCN1` [Xylometazoline] here?
A: The value was 73.9 ± 4.6%.

Q: What about the IC50 [7] of the same molecule?
A: Its IC50 is 0.00741 µM.

Q: And the “Log EC50 (Gs), CRE‐SPAP (without forskolin)” value (from here on “Log EC50 … (without forskolin)”) [7]?
A: The value was “No response”.

Q: And the “Log efficacy ratio (KD/IC50)” value [7]?
A: The value was 0.51.

Q: And the Kd [8]?
A: The Kd was 0.024 µM.

Q: What about the “Selectivity ratio α2A vs α2B (higher affinity for α2A)” value [8] of the same molecule?
A: The value was 151.

Q: And the “Selectivity ratio α2A vs α2C (higher affinity for α2A)” value [8]?
A: The value was 4.5.

Q: And the Kd ([8]; Log KD, CHO‐α2A)?
A: The Kd was 0.024 µM.

Q: What about the Kd [3] of the same molecule?
A: The Kd was 0.107 µM.

Q: And the “Selectivity ratio α2B vs α2C (higher affinity for α2C)” value [3]?
A: The value was 33.9.

Q: And the Kd ([3]; Log KD, CHO‐α2C)?
A: Its Kd is 0.107 µM.

Q: And the “ERK1/2‐phosphorylation agonist response in parent cells” value [1]?
A: The value was “stimulate ERK1/2‐phosphorylation agonist responses”.

Q: What about the “% inhibition, CRE‐SPAP (with forskolin)” value [5] of the same molecule?
A: The value was 57.2 ± 3.9%.

Q: And the IC50 [5]?
A: Its IC50 is 0.0631 µM.

Q: What about the “Log EC50 … (without forskolin)” value [5] of the same molecule?
A: Its value is “No response”.

Q: What about the “Log efficacy ratio (KD/IC50)” value [5] of the same molecule?
A: The value was 0.23.

Q: Which results are given for `CS(=O)(=O)Nc1c(O)ccc2c1CCCC2C1=NCCN1` (centres unmarked) [A61603]?
A: higher α1A‐affinity than for any other α‐adrenoceptor [9]: 1000 fold; IC50 ([3]; 3H‐rauwolscine whole cell binding, no KD obtained, read-out: IC50 in binding, CHO‐α2C): > 100 µM; IC50 (log) in binding, no KD obtained ([3]; CHO‐α2C cells, 3H‐rauwolscine whole cell binding, printed as log value in the Log KD column): IC50 > −4; % 10 μM PDBu, ERK1/2‐phosphorylation [4]: 149.2 ± 30.3%; Log EC50, ERK1/2‐phosphorylation [4, 14]: −7.26 ± 0.15; Log efficacy ratio (KD/IC50) [5]: >2.68; % inhibition, CRE‐SPAP (with forskolin) [5, 11]: 80.5 ± 3.0%; Log EC50 (Gs), CRE‐SPAP (without forskolin) [5, 12]: No response; Log IC50 (Gi), CRE‐SPAP (with forskolin) ([5]; CHO‐α2C cells, inhibition of 3 μM forskolin‐stimulated CRE‐SPAP production, given as negative log IC50, mean ± SEM): −6.68 ± 0.09

Q: What does the source list for `CCNCC(O)c1cccc(O)c1` (centres unmarked) [Etilefrine]?
A: % inhibition, CRE‐SPAP (with forskolin) ([7]; CHO‐α2A (cell line 1), % inhibition from the 3 μM forskolin control, inhibition only): 101.3 ± 4.6%; Log EC50 (Gs), CRE‐SPAP (without forskolin) [7, 15]: No response; Log efficacy ratio (KD/IC50) ([7]; CHO‐α2A, binding KD / Gi IC50 of CRE‐SPAP): 0.61; IC50 ([7]; Log IC50 (Gi), CRE‐SPAP (with forskolin), CHO‐α2A (cell line 1, 5830 fmol/mg protein), 3 μM forskolin): 47.9 µM; Kd [8, 16]: 195 µM; Kd [8, 17]: 195 µM; Selectivity ratio α2A vs α2B (higher affinity for α2A) [8, 18]: 2.1; Kd [3, 19]: 123 µM; Kd [3, 10]: 123 µM; Selectivity ratio α2A vs α2C (higher affinity for α2C) [3, 18]: 1.6; Selectivity ratio α2B vs α2C (higher affinity for α2C) [3, 18]: 3.4; % 10 μM PDBu, ERK1/2‐phosphorylation [4]: 182.2 ± 9.6%; EC50 [4, 14]: 3.16 µM; % inhibition, CRE‐SPAP (with forskolin) [5, 11]: 86.2 ± 7.2%; Log EC50 (Gs), CRE‐SPAP (without forskolin) [5, 12]: No response; Log efficacy ratio (KD/IC50) [5, 20]: 1.01; IC50 [5, 13]: 12 µM; % 10 μM PDBu, ERK1/2‐phosphorylation [6]: 150.8 ± 10.2%; EC50 [6]: 3.24 µM

Q: Which “Log EC50 … (without forskolin)” value [7, 15] does the source give for `COc1ccc(OC)c(C(O)C(C)N)c1` (centres unmarked) [Methoxamine] here?
A: Its value is “No response”.

Q: And the IC50 ([7]; IC50 (Gi), CRE‐SPAP (with forskolin), CHO‐α2A, 3 μM forskolin)?
A: Its IC50 is over 100 µM.

Q: And the Kd [8, 16]?
A: Its Kd is 93.3 µM.

Q: What about the Kd [8, 17] of the same molecule?
A: Its Kd is 93.3 µM.

Q: And the “Selectivity ratio α2A vs α2B (higher affinity for α2A)” value [8, 18]?
A: Its value is 2.5.

Q: What about the “Selectivity ratio α2A vs α2C (higher affinity for α2A)” value [8, 18] of the same molecule?
A: The value was 1.2.

Q: And the Kd [3, 19]?
A: Its Kd is 112 µM.

Q: And the Kd [3, 10]?
A: The Kd was 112 µM.

Q: What about the “Selectivity ratio α2B vs α2C (higher affinity for α2C)” value [3, 18] of the same molecule?
A: Its value is 2.1.

Q: And the “% 10 μM PDBu, ERK1/2‐phosphorylation” value [4]?
A: Its value is 131.0 ± 19.2%.

Q: And the EC50 [4, 14]?
A: The EC50 was 2.34 µM.

Q: What about the “% inhibition, CRE‐SPAP (with forskolin)” value [5, 11] of the same molecule?
A: Its value is 72.3 ± 13.6%.

Q: And the “Log EC50 … (without forskolin)” value [5, 12]?
A: Its value is “No response”.

Q: What about the “Log efficacy ratio (KD/IC50)” value [5, 20] of the same molecule?
A: The value was 1.01.

Q: And the IC50 [5, 13]?
A: Its IC50 is 11 µM.

Q: And the “% 10 μM PDBu, ERK1/2‐phosphorylation” value [6]?
A: Its value is 120.9 ± 29.4%.

Q: What about the EC50 [6] of the same molecule?
A: The EC50 was 6.03 µM.
